What was measured:
TSC2+/− LAM-SMCs [1] = assay: Cell invasion into 3D HA hydrogels, LAM-SMCs; format: cell-based, human; details: for invasion, selectivity towards LAM-SMCs vs control SMCs: 80 kinase inhibitor screen, 5 μM, 384-well 3D hydrogel
Method: (§1) HA (230 kDa) was functionalized with furfurylamine as previously described^[16] Furanyl-modified HA/MMPx-(maleimide)2 hydrogels were prepared as previously described ^[16] with the following modifications: To prepare 1.0 mL of 0.9% HA hydrogel with 25 μM vitronectin peptide for SMC culture, HA-furanyl (65% furanyl substitution, 9.0 mg HA, 13.3 μmol furanyl) was dissolved in 450 μL of dPBS (adjusted to pH 6.5), and added to 357.7 μL of dPBS (pH 6.5). 150.1 μL of maleimide2-MMP-degradable crosslinker peptide dissolved in 0.1 M MES buffer (pH 5.5, 50 mg/mL, 2.8 μmol of peptide, 5.6 μmol of maleimide) and 3.75 μL of maleimide-vitronectin peptide dissolved in 0.1 M MES buffer (pH 5.5, 12 mg/mL, 25 nmol) were added to the HA-furanyl solution and carefully mixed to prevent the formation of air bubbles. 38.5 μL of a thiolated methyl cellulose solution (2.6 mg/mL MC-SH in DI H2O, 100 nmolfree thiols/mgMC) was then added to this solution and mixed carefully with a pipette. Hydrogel formulations were tuned for lung cancer cells. For culturing primary cells from lung cancer tissue biopsies, 100 μM vitronectin peptides were used. For NCI-H1299, NCI-H446 and human bronchial epithelial cells, 100 μM vitronectin peptides and 100 μM fibronectin peptides were used. To prepare gels in 384-well plates, 15 μL of the hydrogel solutions were added to each well in a 384-well plate and placed in the incubator overnight at 37° C.
(§2) Excess sterile water was then added to wells lining the outside of the plates to prevent hydrogel evaporation. […] Gels were then equilibrated with either RPMI-1640 containing 1% FBS (for lung cancer cells) or M231 SMC media (75 μL, >45 mins). Media was then removed, and for SMC culture, 15 μL of M231 supplemented with 25% SMGS (containing a final FBS concentration of 1%) was added into each well for at least 1 h prior to cell seeding. For drug treatment assays, this 15 μL volume of M231 with 25% SMGS also includes a 5× concentration of the desired drug. For larger drug screening assays, Y-27632 (Rock inhibitor, 10 μM) was used as a negative control for cell invasion, and verteporfin (1 μM) was used as a positive control for cell toxicity (SyTox Green staining). For lung cancer cell culture, cells in RPMI media containing 1% FBS was added to each well.
(§3) SMCs were cultured according to reported protocols.^[12a] In brief, cells were cultured in M231 media with Smooth Muscle Growth Supplement (SMGS) and gentamycin (ThermoFisher Scientific) at 37° C. with 5% CO2. Cells were passaged using 0.05% trypsin/EDTA for 3 min at 37° C., and inhibited using M231 media. 3000 cells in 45 μL of M231 without SMGS were added to each well of a 384-well plate containing 3D HA hydrogels.
(§4) After 5 days of culture in 3D HA gels, 30 μL media was carefully removed. To each well, 20 μL of a solution containing SyTox Green (1/50,000) in PBS was added and incubated for 1.5 h at 37° C. Gels were then carefully washed with PBS twice. Cells were then fixed with 4% PFA for 1.5 h in the dark at room temperature. PFA was removed and gels were washed with PBS. A solution of Hoechst (1/1000, 20 μL) was then added to each well for at least 1.5 h in the dark, followed by washing with PBS (3 times). To label the gel surface, fluorescent microspheres (100 nm, orange, Phosphorex) were diluted in PBS (1/100) and centrifuged to separate larger, aggregated microspheres. 20 μL of the resulting supernatant were then added to each well and the 384-well plate was left undisturbed overnight. For drug screening experiments involving treatment with 80 drugs simultaneously, silica gel particles (40-63 μm, 230-400 mesh, SiliCycle) were used to label the […]. A slurry solution (5 mg/mL) of silica gel particles in PBS containing 0.01% sodium azide was mixed and immediately added to each well. Particles settled after 20 seconds and plates could be immediately imaged.
(§5) Z-stacked images were obtained using a Cellomics high content imaging instrument as described above. […]

TSC2+/− LAM-SMCs [2] = assay: Cell viability (SyTox Green), LAM-SMCs; format: cell-based, human; details: for cell viability, selectivity towards LAM-SMCs vs control SMCs: 80 kinase inhibitor screen, 5 μM, 384-well 3D hydrogel
Method: as §1, §2, §3, §4, §5

VEGF-A = details: some glioblastoma patients; cited from earlier work
VEGF-A, sequence (P15692 207-311 limits assumed): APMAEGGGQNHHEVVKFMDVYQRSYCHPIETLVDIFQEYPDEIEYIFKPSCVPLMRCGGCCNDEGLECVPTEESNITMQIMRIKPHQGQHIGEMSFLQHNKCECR

TSC2+/+ control SMCs = assay: Cell invasion into 3D HA hydrogels, control SMCs; format: cell-based, human; details: Y-27632 treatment (10 μM per FIG. 8 legend)
Method: as §1, with “To prepare gels in 384-well plates, 15 μL of the hydrogel solutions were added to each well in a 384-well plate and placed in the incubator overnight at 37° C.” left out

MMP9 = assay: Gelatin zymography of conditioned media (MMP9 secretion), LAM-SMCs; format: cell-based, human; details: Y-27632 treatment (10 μM per FIG. 8 legend)
Method: After 1 day of culture, conditioned media from 384-well plates was collected from each well for gelatin zymography. 8% polyacrylamide (PA) gels were used, and were prepared as previously described^[22] In general, the separating gel component of the zymography gels comprised 7.5 mL of 1.5 M Tris buffer (pH 8.8), 8.0 mL polyacrylamide solution (30%), 10.2 mL gelatin A (3 mg/mL), 2.7 mL water, 300 μL SDS, 300 μL 10% ammonium persulfate, and 36 μL TEMED. The separating gel was allowed to gel for 40 min at room temperature. The stacking gel was then prepared by mixing 5.0 mL of 0.5 M Tris buffer (pH 6.8), 2.6 mL polyacrylamide solution (30%), 12.2 mL water, 200 μL SDS, 150 μL 10% ammonium persulfate, and 30 μL TEMED. The stacking gel was poured on top of each gel and allowed to sit for 40 mins.
For each sample, 12 μL of conditioned media was mixed with 3 μL loading dye, and 12 μL was loaded into each lane. Running buffer comprising 25 mM Tris, 190 mM glycine and 0.1% SDS was used for gel electrophoresis. Following protein separation on the PA gels, gels were washed in 2.5% Triton X (3 times, 10 min each) to remove residual SDS, followed by DI water (5 times, 30 min each). Gels were then placed in an incubation buffer (50 mM Tris buffer pH 7.5 containing 5 mM CaCl2, 200 mM NaCl) and incubated at 37° C. overnight. […]

| Molecule | invasion, selectivity towards LAM-SMCs vs control SMCs (TSC2+/− LAM-SMCs [1]) | cell viability, selectivity towards LAM-SMCs vs control SMCs (TSC2+/− LAM-SMCs [2]) | other results |
| --- | --- | --- | --- |
| Nc1nc(Nc2ccc(S(N)(=O)=O)cc2)nn1C(=S)Nc1c(F)cccc1F [Cdk1/2 inhibitor] | selective decrease | selective decrease | – |
| CN1CCC(c2c(O)cc(O)c3c(=O)cc(-c4ccccc4Cl)oc23)C1CO (single isomer, unassigned; (+)) [(+)-P276] | selective decrease | selective decrease | – |
| Cc1ncc(-c2ccnc(Nc3ccc(S(C)(=O)=O)cc3)n2)n1C(C)C [AZD5438] | selective decrease | selective decrease | – |
| CC(C)CC(=O)Nc1[nH]nc2c1CN(C(=O)C1CCN(C)CC1)C2(C)C [PHA-793887] | selective decrease | selective decrease | – |
| CNC(=O)[C@H](Cc1c[nH]c2ccccc12)NC(=O)[C@@H](CC(=O)NO)CC(C)C [GM6001] | – | – | cell invasion (TSC2+/− LAM-SMCs [1]; 10 μM, invasive LAM-SMCs, 3D hydrogels): modest, yet statistically significant decrease in cell invasion |
| Cc1cc(Nc2cc(N3CCN(C)CC3)nc(/C=C/c3ccccc3)n2)n[nH]1 [ENMD-2076] | selective decrease | selective decrease | – |
| TC-A 2317 NCI | selective decrease | selective decrease | – |
| bevacizumab | – | – | tumor metastasis (VEGF-A): increased tumor metastasis; tumor size (VEGF-A): decreased tumor sizes |
| C[C@@H](N)[C@H]1CC[C@H](C(=O)Nc2ccncc2)CC1 [Y-27632] | – | – | cell invasion (TSC2+/− LAM-SMCs [1]; Y-27632 treatment (10 μM per FIG. 8 legend), LAM-SMCs): significantly decreased cell invasion; cell invasion (TSC2+/+ control SMCs): significantly decreased cell invasion; cell viability (TSC2+/− LAM-SMCs [2]; Y-27632 treatment (10 μM per FIG. 8 legend), LAM-SMCs, 3D HA gels): neither cell viability nor MMP9 secretion levels of LAM-SMCs were affected; MMP9 secretion levels (MMP9): neither cell viability nor MMP9 secretion levels of LAM-SMCs were affected |

Reference: patent US20220098547A1, “HYDROGEL BIOMIMETIC FOR INVASIVE DISEASES” (priority 2018, published 2022)
